According to patent US11241385B2, “Topical composition and method for treating and preventing atopic dermatitis and infections related to bacteria biofilm” (Johnson & Johnson Consumer Inc., priority 2017, dated 2022):

Columns and labels:
[1] = test system: Staphylococcus aureus biofilms; assay: Biofilm growth, crystal violet method; assay type: cell-based, Staphylococcus Aureus MFP03; details: S. aureus, absorbance 550 nm
Method: 1.3.2 Biofilm Growth, Crystal Violet Method
Experiments on biofilm growth were performed according to the protocol disclosed in G. A. O'Toole, Microtiter Dish Biofilm Formation Assay, J Vis Exp. 2011; (47): 2437. The protocol disclosed by G. A. O'Toole teaches the assay on Pseudomonas aeruginosa, it was adapted to Staphylococcus Aureus MFP03 and Staphylococcus Epidermis MFP04.
Two conditions were studied: • The effect of the emulsions on biofilms in formation: the emulsions are added to the medium from the beginning of the bacterial growth. • The effect of emulsions on established biofilms: the emulsions are added to the bacteria after a first 24-hour incubation that allowed the development of the biofilm.
The protocol taught by G. A. O'Toole is as follows:
1. Grow a culture of the wild-type Pseudomonas aeruginosa or mutant strain overnight in a rich medium (i.e. LB)
2. […] For quantitative assays, we typically use 4-8 replicate wells for each treatment. […] Quantifying the Biofilm 1. […] Quantify absorbance in a plate reader at 550 nm using 30% acetic acid in water as the blank. For the conditions of biofilms in formation: emulsions at 10% (w/w) are added to the medium, and after 24 h of incubation, the optical density is measured. […] Optical density is then measured. Results are expressed in percentage of absorbance relative to the control sample, which is the biofilm itself. […]

[2] = test system: Staphylococcus Epidermidis biofilms; assay: Biofilm growth inhibition, wells method (inhibition halos); assay type: cell-based; details: S. Epidermidis
Method: (§1) 1.3.3 Biofilm Growth Inhibition, Wells Method.
(§2) Protocol disclosed by Hui Zhang was adapted as follow: • a—100 μL of a bacterial strains culture (DO580=0.5) is spread on a LB culture plate. • b—5 mm diameter wells are created with a punch in the gel surface of the culture plate. Each well is attributed to one formulation, the same formulation throughout the test. • c—50 μL of tested formulation is injected per well. • d—24 hours incubation at 37° C. • e—Wells are emptied from the formulations. • f—Growth inhibition halos are measured. • g—Repeat from step c to obtain data over several days (8 days in the present case).
(§3) Tests were conducted on biofilms according to the methodology disclosed on paragraph 1.3.3 (Wells). A 10% solution of Triton X-100 (Aldrich) was submitted to the same test, results after 2 days were used as references.
(§4) Inhibition halos were measured and compared to the inhibition halo obtained for the Triton X-100 solution after 2 days. Inhibition halo differences are expressed in %. Over 100% the inhibition is higher than what is observed for Triton at 2 days; under 100% the inhibition is lower than what is observed for Triton at 2 days. Inhibition was measured at 2 days and 8 days.

[3] = test system: Staphylococcus aureus biofilms; assay: as above; assay type: cell-based; details: S. Aureus
Method: as §1, §2, §3, §4

## Triton X-100
[1]; after 24 h biofilm growth medium replaced for 4 hours by emulsion
  Absorbance percentage relative to the control (the biofilm itself), established biofilm: 177%
[1]; emulsion at 10% (w/w) in medium from start, 24 h incubation
  Absorbance percentage relative to the control (the biofilm itself), biofilm in formation: 27%
[2]; 2 days
  Growth inhibition % (halo), relative to Triton X-100 at 2 days: 100%
[2]; 8 days
  Growth inhibition % (halo), relative to Triton X-100 at 2 days: 231%
[3]; 2 days
  Growth inhibition % (halo), relative to Triton X-100 at 2 days: 100%
[3]; 8 days
  Growth inhibition % (halo), relative to Triton X-100 at 2 days: 198.5%
